The test system of data set [1] is Mus musculus. As to the kind of experiment: Anti-diabetic effect in ICR mouse assessed as plasma glucose lowering effect at 10 mg/kg, po treated 1 hr before 2.5 g/kg, po glucose load by Oral glucose tolerance test relative to control.
The nature of data set [2]: AUC (0 to infinity) in male Sprague-Dawley rat at 10 mg/kg, po. The conditions noted are these: in vivo. Further details: dose 10 mg/kg, route oral, time infinity. The data set is classed as ADME, organism-based.
The nature of data set [3]: Volume of distribution at steady state in male Sprague-Dawley rat at 5 mg/kg, iv. It is filed as ADME, organism-based. As to conditions: in vivo, read-out: Vdss.
A short description of data set [4]: Cmax in male Sprague-Dawley rat at 10 mg/kg, po. The data set is classed as ADME, organism-based. Further details: dose 10 mg/kg, route oral. The conditions noted are these: in vivo.
Data set [5] can be described thus: Tmax in male Sprague-Dawley rat at 10 mg/kg, po. The data set is classed as ADME, organism-based. The conditions noted are these: in vivo.
The target in another data set is Dipeptidyl peptidase 8 (Homo sapiens, UniProt Q6V1X1). The data set is described as follows: Inhibition of human recombinant DPP8 using H-Gly-Pro-AMC substrate after 10 mins by fluorescence assay.
Chain of Dipeptidyl peptidase 8 (Q6V1X1 whole entry): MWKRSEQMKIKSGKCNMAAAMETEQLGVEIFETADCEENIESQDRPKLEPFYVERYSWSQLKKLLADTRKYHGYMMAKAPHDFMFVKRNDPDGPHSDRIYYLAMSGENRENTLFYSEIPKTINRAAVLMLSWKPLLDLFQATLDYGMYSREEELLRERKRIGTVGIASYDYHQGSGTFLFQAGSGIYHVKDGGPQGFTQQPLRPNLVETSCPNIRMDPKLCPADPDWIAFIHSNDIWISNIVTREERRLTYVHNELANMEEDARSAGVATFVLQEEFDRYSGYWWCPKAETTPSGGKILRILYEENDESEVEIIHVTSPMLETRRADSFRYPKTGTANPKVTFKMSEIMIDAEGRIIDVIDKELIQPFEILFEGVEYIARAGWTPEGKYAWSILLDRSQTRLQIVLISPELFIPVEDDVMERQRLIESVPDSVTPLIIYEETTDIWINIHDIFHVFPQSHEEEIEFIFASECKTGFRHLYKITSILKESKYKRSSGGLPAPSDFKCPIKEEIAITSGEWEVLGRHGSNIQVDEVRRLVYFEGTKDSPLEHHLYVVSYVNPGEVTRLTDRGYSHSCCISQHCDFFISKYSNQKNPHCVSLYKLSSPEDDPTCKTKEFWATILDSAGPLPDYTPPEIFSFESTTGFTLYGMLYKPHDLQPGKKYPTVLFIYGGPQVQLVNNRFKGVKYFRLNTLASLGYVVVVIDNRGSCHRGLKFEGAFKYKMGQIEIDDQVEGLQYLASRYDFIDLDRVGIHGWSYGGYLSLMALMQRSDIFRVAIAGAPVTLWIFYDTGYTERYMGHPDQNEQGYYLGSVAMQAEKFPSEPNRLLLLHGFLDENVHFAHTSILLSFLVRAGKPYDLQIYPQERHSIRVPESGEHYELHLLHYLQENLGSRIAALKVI
Data set [6] can be described thus: Elimination half life in male Sprague-Dawley rat at 10 mg/kg, po. The data set is classed as ADME, organism-based. The conditions noted are these: in vivo, read-out: beta t1/2 (converted).
Data set [7] in a line: Cmax in male Sprague-Dawley rat at 5 mg/kg, iv. The data set is classed as ADME, organism-based. Further details: dose 5 mg/kg, route intravenous. As to conditions: in vivo.
A short description of data set [8]: Elimination half life in male Sprague-Dawley rat at 5 mg/kg, iv. As to conditions: in vivo, read-out: beta t1/2 (converted). The data set is classed as ADME, organism-based.
Data set [9] in a line: Elimination half life in rat liver microsomes. It is filed as ADME. As to conditions: read-out: beta t1/2.
The target in the next data set is Dipeptidyl peptidase 9 (Homo sapiens, UniProt Q86TI2). As to the kind of experiment: Inhibition of human recombinant DPP9 using H-Gly-Pro-AMC substrate after 10 mins by fluorescence assay.
Chain of Dipeptidyl peptidase 9 (Q86TI2 whole entry): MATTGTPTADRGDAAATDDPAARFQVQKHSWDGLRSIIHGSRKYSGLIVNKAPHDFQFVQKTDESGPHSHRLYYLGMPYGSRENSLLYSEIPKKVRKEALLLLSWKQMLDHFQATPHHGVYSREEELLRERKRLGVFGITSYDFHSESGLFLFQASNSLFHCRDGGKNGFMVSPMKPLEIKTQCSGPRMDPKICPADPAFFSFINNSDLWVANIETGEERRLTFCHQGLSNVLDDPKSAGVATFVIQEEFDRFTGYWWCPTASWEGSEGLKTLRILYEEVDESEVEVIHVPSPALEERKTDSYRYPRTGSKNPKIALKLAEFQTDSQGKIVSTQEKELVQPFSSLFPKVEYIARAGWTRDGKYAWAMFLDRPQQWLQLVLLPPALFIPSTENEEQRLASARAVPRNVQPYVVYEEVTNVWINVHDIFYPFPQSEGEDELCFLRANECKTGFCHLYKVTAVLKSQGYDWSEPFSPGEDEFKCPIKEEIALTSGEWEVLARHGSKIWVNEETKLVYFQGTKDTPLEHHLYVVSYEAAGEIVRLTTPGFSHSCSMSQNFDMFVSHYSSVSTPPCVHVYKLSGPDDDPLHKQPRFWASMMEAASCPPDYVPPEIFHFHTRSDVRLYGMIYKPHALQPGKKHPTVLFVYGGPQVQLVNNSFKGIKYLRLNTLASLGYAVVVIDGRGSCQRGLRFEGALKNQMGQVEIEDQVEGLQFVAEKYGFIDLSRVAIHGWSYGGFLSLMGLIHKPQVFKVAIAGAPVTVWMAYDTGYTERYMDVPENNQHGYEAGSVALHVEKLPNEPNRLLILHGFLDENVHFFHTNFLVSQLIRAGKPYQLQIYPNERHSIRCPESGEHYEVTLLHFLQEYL
The nature of data set [10]: Plasma clearance in male Sprague-Dawley rat at 5 mg/kg, iv. The data set is classed as ADME, organism-based.
A short description of data set [11]: AUC (0 to infinity) in male Sprague-Dawley rat at 5 mg/kg, iv. It is filed as ADME, organism-based. Also on record: dose 5 mg/kg, time infinity, route intravenous. As to conditions: in vivo.
The test system of data set [12] is Mus musculus. As to the kind of experiment: Anti-diabetic effect in ICR mouse assessed as plasma glucose lowering effect at 10 mg/kg, po treated 8 hrs before 2.5 g/kg, po glucose load measured after 8 hrs by Oral glucose tolerance test relative to control.
The nature of data set [13]: Plasma clearance in male Sprague-Dawley rat at 10 mg/kg, po. It is filed as ADME, organism-based.
Data set [14] is described as follows: Oral bioavailability in male Sprague-Dawley rat at 10 mg/kg. As to conditions: in vivo. It is filed as ADME, organism-based.
Another data set deals with Rattus norvegicus. As to the kind of experiment: Volume of distribution at steady state in male Sprague-Dawley rat at 10 mg/kg, po. It is filed as ADME, organism-based. The conditions noted are these: in vivo.
For data set [15], the target named is Voltage-gated inwardly rectifying potassium channel KCNH2 (Homo sapiens, UniProt Q12809). The data set is described as follows: Inhibition of human ERG channel.
Chain of Voltage-gated inwardly rectifying potassium channel KCNH2 (Q12809 whole entry): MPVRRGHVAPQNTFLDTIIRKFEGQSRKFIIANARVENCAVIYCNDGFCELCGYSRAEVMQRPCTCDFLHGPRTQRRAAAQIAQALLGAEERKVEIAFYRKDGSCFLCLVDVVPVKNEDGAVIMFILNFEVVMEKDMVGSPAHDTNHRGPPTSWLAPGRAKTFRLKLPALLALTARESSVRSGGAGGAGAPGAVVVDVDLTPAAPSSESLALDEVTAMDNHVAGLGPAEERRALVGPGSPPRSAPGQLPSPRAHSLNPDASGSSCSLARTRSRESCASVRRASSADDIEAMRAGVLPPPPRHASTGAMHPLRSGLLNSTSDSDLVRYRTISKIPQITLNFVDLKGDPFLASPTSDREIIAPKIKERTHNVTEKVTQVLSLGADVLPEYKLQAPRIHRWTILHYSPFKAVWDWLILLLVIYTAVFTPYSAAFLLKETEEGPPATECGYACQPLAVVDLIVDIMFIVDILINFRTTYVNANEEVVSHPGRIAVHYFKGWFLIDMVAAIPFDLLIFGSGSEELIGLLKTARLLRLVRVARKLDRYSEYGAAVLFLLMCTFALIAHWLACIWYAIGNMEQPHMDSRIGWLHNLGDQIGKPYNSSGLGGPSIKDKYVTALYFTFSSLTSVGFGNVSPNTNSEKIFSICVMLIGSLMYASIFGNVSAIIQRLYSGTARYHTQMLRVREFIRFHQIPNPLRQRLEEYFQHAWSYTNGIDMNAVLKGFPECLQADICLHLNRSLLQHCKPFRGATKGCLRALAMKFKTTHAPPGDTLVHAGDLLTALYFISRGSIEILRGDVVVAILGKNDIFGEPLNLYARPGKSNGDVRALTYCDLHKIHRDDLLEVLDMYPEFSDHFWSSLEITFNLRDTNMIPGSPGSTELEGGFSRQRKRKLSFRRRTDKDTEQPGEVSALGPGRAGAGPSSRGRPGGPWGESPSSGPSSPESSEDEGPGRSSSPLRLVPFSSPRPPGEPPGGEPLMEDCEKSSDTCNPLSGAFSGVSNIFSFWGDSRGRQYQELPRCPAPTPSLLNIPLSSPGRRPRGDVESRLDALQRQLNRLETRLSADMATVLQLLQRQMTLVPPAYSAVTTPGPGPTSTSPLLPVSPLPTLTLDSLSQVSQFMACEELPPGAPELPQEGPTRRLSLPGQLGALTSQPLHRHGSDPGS
A short description of data set [16]: Metabolic stability in rat liver microsome assessed as turnover after 84 mins. The conditions noted are these: liver microsomes, read-out: Drug metabolism. It is filed as ADME. A general note: Microsomes from liver hold many membrane-bound enzymes, among them those of drug oxidation.

SMILES strings stand for the structures.

As a reminder, the AUC(0-inf) is total exposure, with the tail of the curve extrapolated. Lower therefore signals less exposure. A word on the Cmax: it is the highest concentration seen after dosing. Broadly, the Tmax is the time at which the peak concentration occurs. The IC50 is the concentration needed to halve the response being measured. The clearance is the volume of plasma or blood freed of the substance per unit of time. Read a low clearance as inefficient removal. One may read the CL/F as the apparent clearance, not corrected for the fraction that reaches the circulation. In general, bioavailability refers to the share of a dose that reaches the circulation, judged against a reference dose that is usually intravenous. For the molecule `N[C@@H](CC(=O)N1CCn2c(nnc2C(F)(F)F)C1)[C@H]1CCc2cc(F)c(F)cc21`, the entries for the “inhibition (INH)” value with Mus musculus [1] and with Mus musculus [12] were 57% and 24%, respectively. Moreover, the AUC(0-inf) in [2] came out at 2850 ng·h/mL; in [11], 2270 ng·h/mL. Besides, the Vd in data set [3] was found to be 14.2 L/kg. The Cmax in [4] worked out at 466 ng/mL; in data set [7] it was 1490 ng/mL. The Tmax in data set [5] turned out to be 0.55 h. Also, the IC50 is greater than 10 µM at Dipeptidyl peptidase 8, greater than 10 µM on Dipeptidyl peptidase 9 and greater than 20 µM in data set [15]. The half-life in data set [6] is 5.11 h; in data set [8] it was 4.39 h; in [9] it was 5.88 h. Further, the clearance in data set [10] is 37 mL/min/kg. This molecule gave a CL/F in data set [13] of 59.1 mL/min/kg. The molecule further came in with a bioavailability in [14] of 61%. This molecule also returned a Vdss in the data set on Rattus norvegicus of 25.792 L/kg.

Consider `N[C@@H](CC(=O)N1CC(=O)Nc2ccccc2C1)[C@H]1CCc2cc(F)c(F)cc21`, for which the entries for the “inhibition (INH)” value in the data set with Mus musculus [1] and in the data set on Mus musculus [12] were 34% and 35%, respectively. In [16], the metabolised at 1.4 h was 50%. Besides, the IC50 on Dipeptidyl peptidase 8 was greater than 10 µM; at Dipeptidyl peptidase 9 it was greater than 10 µM; in [15], greater than 20 µM. Further, the half-life in data set [9] is 1.4 h.

Turning to `N[C@@H](CC(=O)N1CC(=O)Nc2cc(F)ccc2C1)[C@H]1CCc2cc(F)c(F)cc21`, the half-life in data set [9] was 1.85 h.

As for `N[C@@H](CC(=O)N1CC(=O)Nc2cc(F)c(F)cc2C1)[C@H]1CCc2cc(F)c(F)cc21`, the IC50 on Dipeptidyl peptidase 8 and at Dipeptidyl peptidase 9 was greater than 10 µM each time.

As for `CN1C(=O)CN(C(=O)C[C@H](N)[C@H]2CCc3cc(F)c(F)cc32)Cc2ccccc21`, the “inhibition (INH)” value is 29% in the data set with Mus musculus [1] and 38% with Mus musculus [12]. The IC50 at Dipeptidyl peptidase 8 and on Dipeptidyl peptidase 9 was greater than 10 µM throughout.

Regarding `CN1C(=O)CN(C(=O)C[C@H](N)[C@H]2CCc3cc(F)c(F)cc32)Cc2ccc(F)cc21`, the “inhibition (INH)” value with Mus musculus [1] is listed as 48%; in the data set with Mus musculus [12], 30%. The IC50 on Dipeptidyl peptidase 8 and on Dipeptidyl peptidase 9 was greater than 10 µM throughout.

With `N[C@@H](CC(=O)N1CCn2c(nnc2C(F)(F)F)C1)Cc1cc(F)c(F)cc1F` [SITAGLIPTIN], the “inhibition (INH)” value in the data set on Mus musculus [1] worked out at 40%; with Mus musculus [12], 24%.

(Values after ChEMBL document CHEMBL3580611, “Design, Synthesis, and Pharmacological Evaluation of Fused β-Homophenylalanine Derivatives as Potent DPP-4 Inhibitors” (ACS Med Chem Lett, 2015).)
